How the values were obtained:
Type in all cases: in vivo
[1] = test system: Guinea Pig Chronic Obstructive Pulmonary Disease (COPD) Model; experiment: Histological investigations of lung in guinea pig COPD model
Procedure: (§1) An evaluation was carried out as follows according to a report of Kosuke MORIZUMI, Junichi FUCHIGAMI et al., 2002, The 75th Annual Meeting of the Japanese Pharmacological Society (2002) Abstract No. P-259, “Study of a chronic obstructive pulmonary disease-Effects of theophylline on respiratory function and lung function of guinea pigs in an exposure of cigarette smoke.”
(§2) Male Hartley strain guinea pigs (purchased from Japan SLC, Inc.) were taken in a cigarette exposure holder (RMH-TUBES, manufactured by Muenster Ltd.) to secure them to an exposure chamber (Flow-past type nose-only inhalation chamber, manufactured by Muenster Ltd.), and allowed to inhale cigarette smoke (Hi-Lite, manufactured by Japan Tobacco Inc.) for 60 minutes per day for 5 days in a week, totally 4 weeks using a smoking exposure equipment (Hamburg II, manufactured by Borgwaldt Technik), while the exposure was carried out for 4 days in the 4th week. • (2) Drug Administrations
(§3) Each 0.5% MC suspension of a test drug was orally administered daily in 5 ml/weight (kg) once a day for 25 days from the first day of the exposure. To a sham-exposure group and a control group was orally administered a 0.5% MC suspension in a similar manner. Any oral administrations were carried out 0.5 to 1 hours before exposures on a cigarette-smoke-exposure day or after measurements when measuring respiratory functions. A drug was not administered on the day for measurement of respiratory functions after finishing the 4th week of the exposure. • (3) Measurements of Airway Resistance
After collection of BALF, trachea and lung were isolated. The ligation site of the left lung was opened, injected neutral formalin buffer into trachea, bronchi and lung at the pressure of 20 cm H2O via cannula fixed on the side of the lung, and the lung tissue was extended to be fixed. According to a conventional method, tissue section samples were produced using posterior lobe of the left lung and hematoxylin-eosin (HE) stain was carried out. Any other lung tissues were stored in neutral formalin buffers. Drug efficacies of the produced tissue samples were evaluated by scoring tissue changes under the microscope. The criteria of scores were shown as follows: −: none, ±: minimal, +: mild, ++: moderate, +++: severe. Each quantification was calculated as 0, 1, 2, 3, 4.

[2] = test system: Guinea Pig Chronic Obstructive Pulmonary Disease (COPD) Model; experiment: Lung functions (FRC, RV) in guinea pig COPD model; conditions: for Functional residual capacity (FRC) / Residual volume (RV): after 4th week of exposure, mean ± SEM of 8 animals
Procedure: as §1, §2, §3
After measuring airway resistances in the 4th week, animals were cut open their tracheas under urethane-anesthetizing ([…], i.p.), cannulated on the side of lung, fixed by ligation, and measured residual volumes (RV) and functional residual capacities (FRC) by lung functions measuring system (Biosystem for maneuver, manufactured by Buxco Electronics).

[3] = test system: Guinea Pig Chronic Obstructive Pulmonary Disease (COPD) Model; experiment: Airway resistance (sRaw) in guinea pig COPD model (cigarette smoke exposure); conditions: for Specific airway resistance (sRaw) % increase from pre value: 1 week of cigarette smoke exposure, mean ± SEM of 8 animals
Procedure: as §1, §2, §3
Specific airway resistances (sRaw) in guinea pigs were measured during awakening by double-flow plethysmography using general respiratory function analysis system (PULMOS-I, manufactured by M•I•P•S Corp.). Measurements were carried out before the exposure and on the day after finishing the 1st, 2nd, 3rd and 4th weeks of the exposure. Each 100 breathings of respiratory functions were individually measured, and the average values were obtained as measured values. A rate of change of airway resistances was calculated by the following equation. Rate of change of each measured week (%)=100×(a measured value on each measured date−a measured value before starting exposures of cigarette smoke)/a measured value before starting exposures of cigarette smoke

[4] = 30 mg/kg/day for 25 days, 8 animals
[5] = groups of 10 mg/kg and 30 mg/kg, result in words

With `CNC(=O)NCCn1c(-c2ccc(N3CCOCC3)cc2)csc1=Nc1cccc(F)c1` [SMP-028, N-{2-[2-[(3-fluorophenyl)imino]-4-(4-morpholinophenyl)-thiazol-3(2H)-yl]ethyl}-N′-methylurea] the “Number of animals with grade + (mild): B. Cellular exudation, neutrophil/eosinophil, lumen, bronchiole” value [1, 4] was 0, the “Number of animals with grade + (mild): C. Thickening, alveolar wall” value [1, 4] was 1 and the “Number of animals with grade + (mild): D. Accumulation, foamy/macrophage-like cell, alveolus” value [1, 4] was 2. For the same compound, the “Number of animals with grade + (mild): E. Cellular infiltration, neutrophil, alveolus” value [1, 4] was 0, the “Number of animals with grade ++ (moderate): A. Hyperplasia, epithelial cell, bronchus” value [1, 4] was 0 and the “Number of animals with grade ++ (moderate): B. Cellular exudation, neutrophil/eosinophil, lumen, bronchiole” value [1, 4] was 0. For the same compound, the “Number of animals with grade ++ (moderate): C. Thickening, alveolar wall” value [1, 4] was 0, the “Number of animals with grade ++ (moderate): D. Accumulation, foamy/macrophage-like cell, alveolus” value [1, 4] was 0 and the “Number of animals with grade ++ (moderate): E. Cellular infiltration, neutrophil, alveolus” value [1, 4] was 0. The “Number of animals with grade +++ (severe): A. Hyperplasia, epithelial cell, bronchus” value [1, 4] was 0, the “Number of animals with grade +++ (severe): B. Cellular exudation, neutrophil/eosinophil, lumen, bronchiole” value [1, 4] was 0 and the “Number of animals with grade +++ (severe): C. Thickening, alveolar wall” value [1, 4] was 0. For the same compound, the “Number of animals with grade +++ (severe): D. Accumulation, foamy/macrophage-like cell, alveolus” value [1, 4] was 0, the “Number of animals with grade +++ (severe): E. Cellular infiltration, neutrophil, alveolus” value [1, 4] was 0 and the “Number of animals with grade ± (minimal): A. Hyperplasia, epithelial cell, bronchus” value [1, 4] was 0. For the same compound, the “Number of animals with grade ± (minimal): B. Cellular exudation, neutrophil/eosinophil, lumen, bronchiole” value [1, 4] was 0, the “Number of animals with grade ± (minimal): C. Thickening, alveolar wall” value [1, 4] was 2 and the “Number of animals with grade ± (minimal): D. Accumulation, foamy/macrophage-like cell, alveolus” value [1, 4] was 3. The “Number of animals with grade ± (minimal): E. Cellular infiltration, neutrophil, alveolus” value [1, 4] was 0, the “Number of animals with grade − (none): A. Hyperplasia, epithelial cell, bronchus” value [1, 4] was 8 and the “Number of animals with grade − (none): B. Cellular exudation, neutrophil/eosinophil, lumen, bronchiole” value [1, 4] was 8. For the same compound, the “Number of animals with grade − (none): C. Thickening, alveolar wall” value [1, 4] was 5, the “Number of animals with grade − (none): D. Accumulation, foamy/macrophage-like cell, alveolus” value [1, 4] was 3 and the “Number of animals with grade − (none): E. Cellular infiltration, neutrophil, alveolus” value [1, 4] was 8. For the same compound, the “accumulation of foamy cells/macrophage-like cells within the alveoli and thickening of the alveolar wall” value [1, 5] was “tended to be suppressed”, the “scored pathological findings (FIG. 2) relative to control group” value ([1]; scores 0-4 for grades − to +++, result in words) was “tended to be dose-dependently suppressed” and the “Functional residual capacity (FRC)” value ([2]; 10 mg/kg/day oral) was 7.213 ± 0.374 ^NS mL. The “Residual volume (RV)” value ([2]; 10 mg/kg/day oral) was 3.236 ± 0.537 ^NS mL, the “Functional residual capacity (FRC)” value ([2]; 30 mg/kg/day oral) was 7.066 ± 0.353 ^NS mL and the “Residual volume (RV)” value ([2]; 30 mg/kg/day oral) was 2.649 ± 0.649 ^NS mL. The “increases of functional residual capacity (FRC) and residual volume (RV)” value [2, 5] was “tended to be suppressed”, the “Specific airway resistance (sRaw) % increase from pre value” ([3]; 10 mg/kg/day oral) was 25.54 ± 10.91% and the “Specific airway resistance (sRaw) % increase from pre value” ([3]; 30 mg/kg/day oral) was 15.02 ± 4.07%. The “increases of airway resistance by cigarette smoking stimulation” value [3, 5] was “tended to be suppressed”.

From patent US8012971B2, “Therapeutic agent for chronic obstructive pulmonary disease” (Dainippon Sumitomo Pharma Co., Ltd., priority 2005, dated 2011)
